Reference: patent publication US20070026080A1, “Manufacturing process for tigecycline” (Wyeth, priority 2005, published 2007)

Experiment: Strength and degradation profile of tigecycline 20 mg/mL bulk solutions by reversed phase HPLC (effect of temperature, time, pH, dissolved oxygen; Runs A to O)
Assay type: physicochemical
Conditions: 20 mg/mL, 5° C., pH 7.9, Oxygen 1.0 mg/L
Protocol: The contents of the sample vials are dissolved in diluent. The sample solution is diluted, if necessary, and chromatographed on a reversed phase column using gradient elution. Impurities are determined by comparing the impurity peak areas in the sample preparation chromatogram to the average area of tigecycline peaks in the standard preparation chromatograms obtained concomitantly.
Chromatographic Column—Length about 15 cm, inside diameter about 4.6 mm, packed with Inertsil ODS2, 5 μm size particles or equivalent.
Detector—Ultraviolet spectrophotometric detector capable of operating at 248 nm with a sensitivity of about 0.5 absorbance units full scale.
The results of additional studies to investigate the effect of processing parameters such as temperature, time, and dissolved oxygen content on the purity profile of tigecycline solutions using the following materials, methods and procedures are presented in Tables A to O.
The experiments were run in plastic glove bags under normal laboratory light conditions. Plastic glove boxes will be used to control the headspace of the beakers. The batch size was 200 mL. • 1. Prepare the glove bag with a mixture of nitrogen and air to achieve an oxygen level in the solution as per the design. • 2. Place the jacketed beaker on the magnetic stirrer. Connect it to the cooler. Set the cooler to the desired set point. • 3. Add 200 mL of SWFI in to the beaker. Allow equilibrating. Measure the temperature and oxygen content. When it reaches the desired condition, add accurately weighed API and mix until dissolved. If necessary use spatula to aid dissolution. For pH adjustments, use 4 mL of either 0.1N NaOH or 0.1N HCl and 196 mL of WFI for manufacture. • 4. After complete dissolution, Transfer about 5.5 mL of Solution in vials and stopper them. These vials will be stoppered at the appropriate headspace conditions. Place the vials in appropriate temperature conditions. • 5. Sample the vials at 1, 4, 8, 10, 12 and 24 hours. Send the samples for analysis. Freeze the 10, 12 and 24 samples at −20° C. for analysis the following day. • 6. Measure pH and record color of the solution at each time point. Results
The 1-hour samples were taken directly from the beakers. Samples for later time points were collected in stoppered vials processed in the atmosphere of the bag in order to simulate the headspace conditions then placed in water baths or refrigerator to maintain there respective temperature conditions. This was done to maintain safety in the lab. Disposable plastic glove bags require constant flow of a mixture of nitrogen and air to maintain headspace oxygen level that will result in the desired dissolved oxygen (DO) content in the sample. The pH of samples was measured at each sample points.
Strength and degradation profile was analyzed by HPLC as described above. […] Degradation was slightly higher at higher temperature condition.

[1] = Run #H, hours 1,4,8,10,12,24 at r6-r11, 4 h
[2] = Run #H, hours 1,4,8,10,12,24 at r6-r11, 10 h
[3] = Run #H, hours 1,4,8,10,12,24 at r6-r11, 12 h
[4] = Run #H, hours 1,4,8,10,12,24 at r6-r11, 24 h
[5] = Run #H, hours 1,4,8,10,12,24 at r17-r22, 1 h
[6] = Run #H, hours 1,4,8,10,12,24 at r17-r22, 4 h
[7] = Run #H, hours 1,4,8,10,12,24 at r17-r22, 8 h
[8] = Run #H, hours 1,4,8,10,12,24 at r17-r22, 10 h
[9] = Run #H, hours 1,4,8,10,12,24 at r17-r22, 12 h
[10] = Run #H, hours 1,4,8,10,12,24 at r17-r22, 24 h
[11] = Run #I, hours 1,4,8,10,12,24 at r6-r11, 1 h
[12] = Run #I, hours 1,4,8,10,12,24 at r6-r11, 4 h
[13] = Run #I, hours 1,4,8,10,12,24 at r6-r11, 8 h
[14] = Run #I, hours 1,4,8,10,12,24 at r6-r11, 10 h
[15] = Run #I, hours 1,4,8,10,12,24 at r6-r11, 12 h

SMILES: CN(C)c1cc(NC(=O)CNC(C)(C)C)c(O)c2c1C[C@H]1C[C@H]3[C@H](N(C)C)C(O)=C(C(N)=O)C(=O)[C@@]3(O)C(O)=C1C2=O [Tigecycline]
- RRT 0.74 Epimer [1]: 0.20%
- Strength [1]: 19.441 mg/mL
- Strength (Run #H, hours 1,4,8,10,12,24 at r6-r11, 8 h): 19.361 mg/mL
- RRT 0.74 Epimer [2]: 0.25%
- Strength [2]: 19.447 mg/mL
- RRT 0.74 Epimer [3]: 0.27%
- Strength [3]: 20.119 mg/mL
- RRT 0.74 Epimer [4]: 0.23%
- Strength [4]: 19.319 mg/mL
- RRT 0.78 MW = 557 (Run #H, hours 1,4,8,10,12,24 at r17-r22): BRL (BRL means below reporting limit (meaning less than 0.05% of tigecycline peak))
- RRT 1.45 [5]: 0.09%
- RRT 1.64 Mino [5]: 0.12%
- RRT 1.85 MW = 597 [5]: 0.07%
- Total [5]: 0.60%
- RRT 1.45 [6]: 0.07%
- RRT 1.64 Mino [6]: 0.09%
- RRT 1.85 MW = 597 [6]: 0.08%
- Total [6]: 0.70%
- RRT 1.64 Mino [7]: 0.10%
- Total [7]: 0.66%
- RRT 1.64 Mino [8]: 0.11%
- Total [8]: 0.90%
- RRT 1.85 MW = 597 [9]: 0.09%
- Total [9]: 0.87%
- RRT 1.45 [10]: 0.05%
- RRT 1.64 Mino [10]: 0.15%
- RRT 1.85 MW = 597 [10]: 0.10%
- Total [10]: 1.03%
- RRT 0.64 9-Amino (Run #I, hours 1,4,8,10,12,24 at r6-r11): BRL (BRL means below reporting limit (meaning less than 0.05% of tigecycline peak))
- RRT 0.58 [11]: 0.08%
- RRT 0.74 Epimer [11]: 0.19%
- Strength [11]: 19.263 mg/mL
- RRT 0.58 [12]: 0.09%
- RRT 0.74 Epimer [12]: 0.21%
- Strength [12]: 19.361 mg/mL
- RRT 0.58 [13]: 0.06%
- RRT 0.74 Epimer [13]: 0.18%
- Strength [13]: 19.131 mg/mL
- RRT 0.74 Epimer [14]: 0.29%
- Strength [14]: 19.204 mg/mL
- RRT 0.58 [15]: 0.07%
- RRT 0.74 Epimer [15]: 0.26%
